{
  "source": "EPA's ToxRefDB 2",
  "key": {"rabbit": {"test_system": "rabbit", "conditions": "Prenatal developmental toxicity study; new zealand white; Oral; Gavage/Intubation; dose end: 18 GD; group: maternal; systemic / in life observation / clinical signs / general motor disturbances + systemic / in life observation / clinical signs / partial …"}, "rat [1]": {"test_system": "rat", "conditions": "Prenatal developmental toxicity study, sprague dawley, Oral, Gavage/Intubation, dose end: 15 GD"}, "rat [2]": {"test_system": "rat", "conditions": "Subchronic dermal toxicity, sprague dawley, Topical, dose end: 91 day, group: systemic, systemic / in life observation / clinical signs / erythema"}, "mouse [3]": {"test_system": "mouse", "conditions": "Combined chronic toxicity/carcinogenicity, b6c3f1, Oral, Water, dose end: 105 week, group: systemic"}, "rat [4]": {"test_system": "rat", "conditions": "Subchronic oral toxicity in rodents, fischer, Water, dose end: 3 month, group: systemic, systemic / clinical chemistry / alanine aminotransferase (alt/sgpt) / alanine aminotransferase (alt/sgpt) + systemic / clinical chemistry / …"}, "mouse [5]": {"test_system": "mouse", "conditions": "Subchronic oral toxicity in rodents, b6c3f1, Water, dose end: 3 month, group: systemic"}, "rat [6]": {"test_system": "rat", "conditions": "Combined chronic toxicity/carcinogenicity, fischer, Oral, Water, dose end: 105 week, group: systemic"}, "[7]": {"conditions": "group: developmental, developmental / developmental malformation / bone / bent + developmental / developmental malformation / bone / unossified + developmental / …"}, "[8]": {"conditions": "group: maternal, systemic / in life observation / body weight / body weight + systemic / in life observation / clinical signs / reduced activity + systemic…"}, "[9]": {"conditions": "systemic / pathology microscopic / intestine small / adenoma + systemic / pathology microscopic / intestine small / carcinoma + systemic / …"}, "[10]": {"conditions": "systemic / pathology microscopic / intestine small / hyperplasia + systemic / pathology microscopic / lymph node / infiltration cellular + …"}, "[11]": {"conditions": "systemic / hematology / erythrocyte (rbc) count differential / erythrocyte (rbc) + systemic / hematology / hemoglobin (hgb) / hemoglobin (…"}, "[12]": {"conditions": "systemic / hematology / mean corpuscular hemoglobin (mch) / mean corpuscular hemoglobin (mch) + systemic / pathology microscopic / intestine…"}, "[13]": {"conditions": "systemic / pathology microscopic / liver / inflammation"}, "[14]": {"conditions": "systemic / pathology microscopic / oral mucosa / squamous cell carcinoma + systemic / clinical chemistry / alanine aminotransferase (alt/…"}},
  "data": [
    {"compound": "N#CN=C([S-])[S-].[Na+].[Na+]", "note": "[Disodium cyanodithioimidocarbonate]", "values": [
      {"measurement": "LEL", "setting": "rabbit", "result": 10, "unit": "mg/kg/day"},
      {"measurement": "LOAEL", "setting": "rabbit", "result": 10, "unit": "mg/kg/day"},
      {"measurement": "NEL", "setting": "rabbit", "result": 3, "unit": "mg/kg/day"},
      {"measurement": "NOAEL", "setting": "rabbit", "result": 3, "unit": "mg/kg/day"},
      {"measurement": "LOAEL", "setting": "rat [1]; group: developmental, developmental / developmental malformation / bone / bent + developmental / developmental malformation / bone / unossified", "result": 18, "unit": "mg/kg/day"},
      {"measurement": "LEL", "setting": "rat [1]; [7]", "result": 18, "unit": "mg/kg/day"},
      {"measurement": "NEL", "setting": "rat [1]; [7]", "result": 6, "unit": "mg/kg/day"},
      {"measurement": "NOAEL", "setting": "rat [1]; [7]", "result": 6, "unit": "mg/kg/day"},
      {"measurement": "LOAEL", "setting": "rat [1]; group: maternal, systemic / in life observation / body weight / body weight + systemic / in life observation / clinical signs / reduced activity", "result": 18, "unit": "mg/kg/day"},
      {"measurement": "LEL", "setting": "rat [1]; [8]", "result": 18, "unit": "mg/kg/day"},
      {"measurement": "NEL", "setting": "rat [1]; [8]", "result": 6, "unit": "mg/kg/day"},
      {"measurement": "NOAEL", "setting": "rat [1]; [8]", "result": 6, "unit": "mg/kg/day"},
      {"measurement": "LEL", "setting": "rat [2]", "result": 25, "unit": "mg/kg/day"},
      {"measurement": "LOAEL", "setting": "rat [2]", "result": 25, "unit": "mg/kg/day"},
      {"measurement": "NEL", "setting": "rat [2]", "result": "< 25", "unit": "mg/kg/day"},
      {"measurement": "NOAEL", "setting": "rat [2]", "result": "< 25", "unit": "mg/kg/day"}
    ]},
    {"compound": "O.O.[Na+].[Na+].[O]=[Cr](=[O])([O-])[O][Cr](=[O])(=[O])[O-]", "note": "[Sodium dichromate(VI) dihydrate]", "values": [
      {"measurement": "LOAEL", "setting": "mouse [3]; [9]", "result": "> 17", "unit": "mg/kg/day"},
      {"measurement": "NOAEL", "setting": "mouse [3]; [9]", "result": "≥ 17", "unit": "mg/kg/day"},
      {"measurement": "LEL", "setting": "mouse [3]; [10]", "result": 1.1, "unit": "mg/kg/day"},
      {"measurement": "NEL", "setting": "mouse [3]; [10]", "result": "< 1.1", "unit": "mg/kg/day"},
      {"measurement": "LEL", "setting": "rat [4]", "result": 5, "unit": "mg/kg/day"},
      {"measurement": "LOAEL", "setting": "rat [4]", "result": "> 60", "unit": "mg/kg/day"},
      {"measurement": "NEL", "setting": "rat [4]", "result": "< 5", "unit": "mg/kg/day"},
      {"measurement": "NOAEL", "setting": "rat [4]", "result": "≥ 60", "unit": "mg/kg/day"},
      {"measurement": "LOAEL", "setting": "mouse [5]; [11]", "result": "> 80", "unit": "mg/kg/day"},
      {"measurement": "NOAEL", "setting": "mouse [5]; [11]", "result": "≥ 80", "unit": "mg/kg/day"},
      {"measurement": "LEL", "setting": "mouse [5]; [12]", "result": 9, "unit": "mg/kg/day"},
      {"measurement": "NEL", "setting": "mouse [5]; [12]", "result": "< 9", "unit": "mg/kg/day"},
      {"measurement": "LEL", "setting": "rat [6]; [13]", "result": 0.7, "unit": "mg/kg/day"},
      {"measurement": "NEL", "setting": "rat [6]; [13]", "result": "< 0.7", "unit": "mg/kg/day"},
      {"measurement": "LOAEL", "setting": "rat [6]; [14]", "result": "> 17", "unit": "mg/kg/day"},
      {"measurement": "NOAEL", "setting": "rat [6]; [14]", "result": "≥ 17", "unit": "mg/kg/day"}
    ]}
  ]
}
